# Legend:
# [1] = system: A549; experiment: Antiproliferative activity against human A549 cells assessed as inhibition of cell growth by MTT assay; assay type: functional, cell-based
# [2] = system: SiHa; experiment: Antiproliferative activity against human SiHa cells assessed as inhibition of cell growth by MTT assay; assay type: functional, cell-based
# [3] = system: PC-3; experiment: Antiproliferative activity against human PC-3 cells assessed as inhibition of cell growth by MTT assay; assay type: functional, cell-based
# [4] = system: HCT-116; experiment: Antiproliferative activity against human HCT-116 cells assessed as inhibition of cell growth by MTT assay; assay type: functional, cell-based
# [5] = system: HepG2; experiment: Antiproliferative activity against human HepG2 cells assessed as inhibition of cell growth by MTT assay; assay type: functional, cell-based
# [6] = system: MCF7; experiment: Antiproliferative activity against human MCF7 cells assessed as inhibition of cell growth by MTT assay; assay type: functional, cell-based
# [7] = system: A549; experiment: Induction of apoptosis in human A549 cells assessed as increase in apoptotic cells at 3 uM incubated for 48 hrs by Annexin V-FITC/PI staining analysis relative to control; assay type: functional
# [8] = system: A549; experiment: Induction of cell cycle arrest in human A549 cells assessed as accumulation of cells at G2/M phase at 3 uM by FACS analysis ( Rvb = 9.35%); assay type: functional
# [9] = system: A549; experiment: Induction of cell cycle arrest in human A549 cells assessed as accumulation of cells at S phase at 3 uM by FACS analysis ( Rvb = 40.71%); assay type: functional
# [10] = system: A549; experiment: Induction of cell cycle arrest in human A549 cells assessed as accumulation of cells at G2/M phase at 6 uM by FACS analysis ( Rvb = 9.35%); assay type: functional
# [11] = system: A549; experiment: Induction of apoptosis in human A549 cells assessed as increase in apoptotic cells at 6 uM incubated for 48 hrs by Annexin V-FITC/PI staining analysis relative to control; assay type: functional
# [12] = system: A549; experiment: Induction of apoptosis in human A549 cells assessed as increase in apoptotic cells at 1.5 uM incubated for 48 hrs by Annexin V-FITC/PI staining analysis relative to control; assay type: functional
# [13] = system: A549; experiment: Induction of cell cycle arrest in human A549 cells assessed as accumulation of cells at S phase at 6 uM by FACS analysis ( Rvb = 40.71%); assay type: functional
# [14] = system: A549; experiment: Induction of cell cycle arrest in human A549 cells assessed as accumulation of cells at G0/G1 phase at 6 uM by FACS analysis ( Rvb = 49.93%); assay type: functional
# [15] = system: A549; experiment: Induction of cell cycle arrest in human A549 cells assessed as accumulation of cells at G0/G1 phase at 1.5 uM by FACS analysis ( Rvb = 49.93%); assay type: functional
# [16] = Cytotoxicity against human L02 cells assessed as inhibition of cell growth by MTT assay; assay type: toxicity, cell-based
# [17] = system: A549; experiment: Induction of cell cycle arrest in human A549 cells assessed as accumulation of cells at G0/G1 phase at 3 uM by FACS analysis ( Rvb = 49.93%); assay type: functional
# [18] = system: A549; experiment: Inhibition of PI3K signalling pathway in human […] cells assessed as decrease in phosphorylated AKT level by Western blot assay; assay type: cell-based; conditions: dose 1.5-6 µM
# [19] = system: A549; experiment: Inhibition of PI3K signalling pathway in human […] cells assessed as decrease in phosphorylated PI3K level by Western blot assay; assay type: cell-based; conditions: dose 1.5-6 µM
# [20] = system: A549; experiment: Induction of cell cycle arrest in human A549 cells assessed as accumulation of cells at S phase at 1.5 uM by FACS analysis ( Rvb = 40.71%); assay type: functional
# [21] = system: A549; experiment: Induction of cell cycle arrest in human A549 cells assessed as accumulation of cells at G2/M phase at 1.5 uM by FACS analysis ( Rvb = 9.35%); assay type: functional
IC50 [1],IC50 [3],IC50 [4],IC50 [5],IC50 [6],SMILES,IC50 [2],also measured
> 100 µM,57.3 µM,> 100 µM,23.3 µM,27 µM,COc1cc2nc(-c3cc(OC)c(OC)cc3OC)[nH]c2cc1C#Cc1ccccc1Cl,90.8 µM,–
> 100 µM,10.5 µM,3.05 µM,19.4 µM,6.65 µM,COc1cc2nc(-c3cc(OC)c(OC)cc3OC)[nH]c2cc1C#Cc1ccc(Cl)cc1,> 100 µM,–
> 100 µM,65.4 µM,53.9 µM,> 100 µM,> 100 µM,COc1cc2nc(-c3ccc(OC)c(OC)c3OC)[nH]c2cc1/C=C/C(=O)NCCO,22.6 µM,–
1.55 µM,25.5 µM,1.68 µM,88.7 µM,2.01 µM,COc1cc2nc(-c3cc(OC)c(OC)cc3OC)[nH]c2cc1C#Cc1ccccc1F,9.36 µM,Activity [7]: 61.73%; Activity [8]: 7.83%; Activity [9]: 37.22%; Activity [10]: 6.64%; Activity [11]: 63.1%; Activity [12]: 28.97%; Activity [13]: 32.41%; Activity [14]: 60.61%; Activity [15]: 54.14%; IC50 [16]: 41.5 µM; Activity [17]: 54.95%; inhibition [18]: Dose-Dependent Effect; inhibition [19]: Dose-Dependent Effect; Activity [20]: 37.71%; Activity [21]: 8.15%
9.7 µM,20.2 µM,3.02 µM,88.7 µM,7.14 µM,COc1ccc(C#Cc2cc3[nH]c(-c4cc(OC)c(OC)cc4OC)nc3cc2OC)cc1,33.4 µM,–
> 100 µM,> 100 µM,> 100 µM,> 100 µM,> 100 µM,COc1cc2nc(-c3ccc(OC)c(OC)c3OC)[nH]c2cc1/C=C/C(N)=O,> 100 µM,–
46.1 µM,41.1 µM,15 µM,56.8 µM,> 100 µM,COc1cc2nc(-c3ccc(OC)c(OC)c3OC)[nH]c2cc1C#Cc1ccc(C(F)(F)F)cc1,86.6 µM,–
> 100 µM,22.7 µM,81.4 µM,96.8 µM,> 100 µM,COc1cc2nc(-c3ccc(OC)c(OC)c3OC)[nH]c2cc1C#Cc1ccccc1Cl,> 100 µM,–
9.75 µM,12.1 µM,3.73 µM,23.6 µM,16.4 µM,Nc1cc(C(F)(F)F)c(-c2cc(N3CCOCC3)nc(N3CCOCC3)n2)cn1 [BUPARLISIB],7.18 µM,Activity [8]: 36.68%; Activity [9]: 27.99%; Activity [17]: 35.32%
> 100 µM,92.6 µM,37.4 µM,55.6 µM,> 100 µM,COc1cc2nc(-c3cc(OC)c(OC)cc3OC)[nH]c2cc1/C=C/C(=O)NC(C)C,> 100 µM,–
> 100 µM,26.9 µM,39.3 µM,35.6 µM,> 100 µM,COc1cc2nc(-c3ccc(OC)c(OC)c3OC)[nH]c2cc1C#Cc1ccccc1F,> 100 µM,–
93.3 µM,22.6 µM,29 µM,> 100 µM,77.8 µM,COc1cc2nc(-c3cc(OC)c(OC)cc3OC)[nH]c2cc1/C=C/C(N)=O,5.27 µM,–
> 100 µM,19.6 µM,15.3 µM,> 100 µM,> 100 µM,COc1cc2nc(-c3ccc(OC)c(OC)c3OC)[nH]c2cc1/C=C/C(=O)NC(C)(C)C,38 µM,–
14.8 µM,4.01 µM,6.94 µM,13.7 µM,22 µM,CCOC(=O)/C=C/c1cc2[nH]c(-c3cc(OC)c(OC)cc3OC)nc2cc1OC,9.8 µM,–
85.4 µM,46 µM,38.4 µM,36.8 µM,> 100 µM,COc1cc2nc(-c3ccc(OC)c(OC)c3OC)[nH]c2cc1/C=C/C(=O)NC(C)C,72.3 µM,–
> 100 µM,37.6 µM,67.8 µM,> 100 µM,> 100 µM,COc1cc2nc(-c3ccc(OC)c(OC)c3OC)[nH]c2cc1/C=C/C(=O)N1CCOCC1,76 µM,–
> 100 µM,90.8 µM,> 100 µM,> 100 µM,> 100 µM,COc1cc2nc(-c3ccc(OC)c(OC)c3OC)[nH]c2cc1/C=C(\C)C(N)=O,> 100 µM,–
> 100 µM,> 100 µM,> 100 µM,94.8 µM,> 100 µM,COc1ccc(C#Cc2cc3[nH]c(-c4ccc(OC)c(OC)c4OC)nc3cc2OC)cc1,> 100 µM,–
> 100 µM,> 100 µM,> 100 µM,> 100 µM,> 100 µM,COc1cc2nc(-c3cc(OC)c(OC)cc3OC)[nH]c2cc1/C=C/C(=O)NCCO,> 100 µM,–
73.4 µM,22.1 µM,32.9 µM,61 µM,57.3 µM,COc1cc2nc(-c3cc(OC)c(OC)cc3OC)[nH]c2cc1/C=C(\C)C(N)=O,33.5 µM,–
> 100 µM,84.9 µM,75.1 µM,> 100 µM,> 100 µM,CCOC(=O)/C=C/c1cc2[nH]c(-c3ccc(OC)c(OC)c3OC)nc2cc1OC,80.6 µM,–
8.36 µM,3.74 µM,3.11 µM,13 µM,21.7 µM,COc1cc2nc(-c3cc(OC)c(OC)cc3OC)[nH]c2cc1/C=C/C(=O)NC(C)(C)C,3.48 µM,–
> 100 µM,20.4 µM,10.4 µM,66.2 µM,> 100 µM,COc1cc2nc(-c3ccc(OC)c(OC)c3OC)[nH]c2cc1C#Cc1ccc(Cl)cc1,> 100 µM,–
33.1 µM,19.5 µM,4.47 µM,44.6 µM,66.7 µM,COc1cc2nc(-c3cc(OC)c(OC)cc3OC)[nH]c2cc1C#Cc1ccc(C(F)(F)F)cc1,24.4 µM,–
> 100 µM,8.45 µM,12 µM,87.4 µM,15.5 µM,COc1cc2nc(-c3cc(OC)c(OC)cc3OC)[nH]c2cc1/C=C/C(=O)N1CCOCC1,6.57 µM,–

# Reference: ChEMBL document CHEMBL5365469, “Design, synthesis and antitumor effects of novel benzimidazole derivatives as PI3K inhibitors” (Bioorg Med Chem Lett, 2023)
